Test results as given in patent publication US8022090B2, “Vitamin C composition stabilized with cationic material, anionic material and caffeic acid derivative” (The Faceshop Korea Co., Ltd, priority 2007, dated 2011).

Assay: solubility measurement in purified water and ethanol
Conditions: for solubility: ethanol (25° C.); for density up to which dissolved: 25° C.

solubility (density 1 mg/mL): dissolved
solubility (density 10 mg/mL): dissolved
density up to which dissolved (ethanol): ≥ 10 mg/mL
density up to which dissolved (purified water): not dissolved
SMILES: O=C(O)/C=C/c1ccc(O)c(O)c1 [caffeic acid]
